Results published in patent publication US11098038B2, “Imidazole-based anticancer agents and derivatives thereof, and methods of making and using same” (The University of Toledo, priority 2017, dated 2021).

Tests used:
Assay type in all cases: cell-based
PC-3 = experiment: NCI 60 screen, PC-3; details: Homo sapiens, Prostatic
Method: (§1) The compounds synthesized were tested at the National Cancer Institute (NCI) for anti-proliferative activity in the 60 human tumor cell line assay.

A549/ATCC = experiment: NCI 60 screen, A549/ATCC; details: Homo sapiens, Non-Small Cell Lung
Method: as §1

RXF393 = experiment: NCI 60 screen, RXF393; details: Homo sapiens, RXF 393, Renal
Method: as §1

NCI/ADR-RES = experiment: NCI 60 screen, NCI/ADR-RES; details: Homo sapiens, Ovarian
Method: as §1

M14 = experiment: NCI 60 screen, M14; details: Homo sapiens, Melanoma
Method: as §1

EKVX = experiment: NCI 60 screen, EKVX; details: Homo sapiens, Non-Small Cell Lung
Method: as §1

MALME-3M = experiment: NCI 60 screen, MALME-3M; details: Homo sapiens, Melanoma
Method: as §1

OVCAR-5 = experiment: NCI 60 screen, OVCAR-5; details: Homo sapiens, Ovarian
Method: as §1

NCI-H23 = experiment: NCI 60 screen, NCI-H23; details: Homo sapiens, Non-Small Cell Lung
Method: as §1

SW-620 = experiment: NCI 60 screen, SW-620; details: Homo sapiens, Colon
Method: as §1

RPMI-8226 = experiment: NCI 60 screen, RPMI-8226; details: Homo sapiens, Leukemia
Method: as §1

HOP-62 = experiment: NCI 60 screen, HOP-62; details: Homo sapiens, Non-Small Cell Lung
Method: as §1

KM12 = experiment: NCI 60 screen, KM12; details: Homo sapiens, Colon
Method: as §1

NCI-322M = experiment: NCI 60 screen, NCI-322M; details: Homo sapiens, Non-Small Cell Lung
Method: as §1

HS 578T = experiment: NCI 60 screen, HS 578T; details: Homo sapiens, Breast
Method: as §1

UACC-62 = experiment: NCI 60 screen, UACC-62; details: Homo sapiens, Melanoma
Method: as §1

DU-145 = experiment: NCI 60 screen, DU-145; details: Homo sapiens, Prostatic
Method: as §1

NCI-H226 = experiment: NCI 60 screen, NCI-H226; details: Homo sapiens, Non-Small Cell Lung
Method: as §1

SR = experiment: NCI 60 screen, SR; details: Homo sapiens, Leukemia
Method: as §1

MCF7 = experiment: NCI 60 screen, MCF7; details: Homo sapiens, Breast
Method: as §1

MDA-MB-468 = experiment: NCI 60 screen, MDA-MB-468; details: Homo sapiens, Breast
Method: as §1

MDA-MB-231/ATCC = experiment: NCI 60 screen, MDA-MB-231/ATCC; details: Homo sapiens, Breast
Method: as §1

786-0 = experiment: NCI 60 screen, 786-0; details: Homo sapiens, Renal
Method: as §1

A498 = experiment: NCI 60 screen, A498; details: Homo sapiens, Renal
Method: as §1

ACHN = experiment: NCI 60 screen, ACHN; details: Homo sapiens, Renal
Method: as §1

SNB-19 = experiment: NCI 60 screen, SNB-19; details: Homo sapiens, CNS
Method: as §1

SF-295 = experiment: NCI 60 screen, SF-295; details: Homo sapiens, CNS
Method: as §1

NCI-460 = experiment: NCI 60 screen, NCI-460; details: Homo sapiens, Non-Small Cell Lung
Method: as §1

UO-31 = experiment: NCI 60 screen, UO-31; details: Homo sapiens, Renal
Method: as §1

MOLT-4 = experiment: NCI 60 screen, MOLT-4; details: Homo sapiens, Leukemia
Method: as §1

HCT15 = experiment: NCI 60 screen, HCT15; details: Homo sapiens, HCT-15, Colon
Method: as §1

HT29 = experiment: NCI 60 screen, HT29; details: Homo sapiens, HT-29, Colon
Method: as §1

SK-MEL-5 = experiment: NCI 60 screen, SK-MEL-5; details: Homo sapiens, Melanoma
Method: as §1

CCRF-CEM = experiment: NCI 60 screen, CCRF-CEM; details: Homo sapiens, Leukemia
Method: as §1

NCI-H522 = experiment: NCI 60 screen, NCI-H522; details: Homo sapiens, Non-Small Cell Lung
Method: as §1

SK-OV-3 = experiment: NCI 60 screen, SK-OV-3; details: Homo sapiens, Ovarian
Method: as §1

UACC-257 = experiment: NCI 60 screen, UACC-257; details: Homo sapiens, Melanoma
Method: as §1

LOX IMVI = experiment: NCI 60 screen, LOX IMVI; details: Homo sapiens, Melanoma
Method: as §1

HOP-92 = experiment: NCI 60 screen, HOP-92; details: Homo sapiens, Non-Small Cell Lung
Method: as §1

OVCAR-4 = experiment: NCI 60 screen, OVCAR-4; details: Homo sapiens, Ovarian
Method: as §1

HCC-2998 = experiment: NCI 60 screen, HCC-2998; details: Homo sapiens, Colon
Method: as §1

T-47D = experiment: NCI 60 screen, T-47D; details: Homo sapiens, T47D, Breast
Method: as §1

SK-MEL-2 [1] = experiment: NCI 60 screen, SK-MEL-2 (first line); details: Homo sapiens; Melanoma, SK-MEL-2 (first of two lines so named, r37)
Method: as §1

HL-60(TB) = experiment: NCI 60 screen, HL-60(TB); details: Homo sapiens, Leukemia
Method: as §1

SK-MEL-2 [2] = experiment: NCI 60 screen, SK-MEL-2 (second line); details: Homo sapiens; Melanoma, SK-MEL-2 (second of two lines so named, r38)
Method: as §1

SNB-75 = experiment: NCI 60 screen, SNB-75; details: Homo sapiens, CNS
Method: as §1

K-562 = experiment: NCI 60 screen, K-562; details: Homo sapiens, K562, Leukemia
Method: as §1

OVCAR-3 = experiment: NCI 60 screen, OVCAR-3; details: Homo sapiens, Ovarian
Method: as §1

SN12C = experiment: NCI 60 screen, SN12C; details: Homo sapiens, Renal
Method: as §1

MDA-MB-435 = experiment: NCI 60 screen, MDA-MB-435; details: Homo sapiens, Melanoma
Method: as §1

TK-10 = experiment: NCI 60 screen, TK-10; details: Homo sapiens, Renal
Method: as §1

SF-539 = experiment: NCI 60 screen, SF-539; details: Homo sapiens, CNS
Method: as §1

BT-549 = experiment: NCI 60 screen, BT-549; details: Homo sapiens, Breast
Method: as §1

HCT-116 = experiment: NCI 60 screen, HCT-116; details: Homo sapiens, Colon
Method: as §1

U251 = experiment: NCI 60 screen, U251; details: Homo sapiens, U-251, CNS
Method: as §1

IGROV1 = experiment: NCI 60 screen, IGROV1; details: Homo sapiens, IGROV-1, Ovarian
Method: as §1

OVCAR-8 = experiment: NCI 60 screen, OVCAR-8; details: Homo sapiens, Ovarian
Method: as §1

SF-268 = experiment: NCI 60 screen, SF-268; details: Homo sapiens, CNS
Method: as §1

COLO 205 = experiment: NCI 60 screen, COLO 205; details: Homo sapiens, Colon
Method: as §1

Structure (SMILES): O=C(Cc1ccc(/C=C/C(=O)c2ncc[nH]2)cc1)Nc1ccc(F)cc1 [Compound 22, (E)-2-(4-(3-(1H-imidazol-2-yl)-3-oxoprop-1-en-1-yl)phenyl)-N-(4-fluorophenyl)acetamide]
- GI50 (PC-3): 2.8 µM
- GI50 (A549/ATCC): 6.94 µM
- GI50 (RXF393): 3.44 µM
- GI50 (NCI/ADR-RES): 7.18 µM
- GI50 (M14): 5.98 µM
- GI50 (EKVX): 7.46 µM
- GI50 (MALME-3M): 7.86 µM
- GI50 (OVCAR-5): 2.6 µM
- GI50 (NCI-H23): 1.91 µM
- GI50 (SW-620): 1.43 µM
- GI50 (RPMI-8226): 1.27 µM
- GI50 (HOP-62): 2.64 µM
- GI50 (KM12): 2.1 µM
- GI50 (NCI-322M): 3.35 µM
- GI50 (HS 578T): 2.33 µM
- GI50 (UACC-62): 5.92 µM
- GI50 (DU-145): 1.19 µM
- GI50 (NCI-H226): 9.85 µM
- GI50 (SR): 1.11 µM
- GI50 (MCF7): 0.99 µM
- GI50 (MDA-MB-468): 0.97 µM
- GI50 (MDA-MB-231/ATCC): 1.83 µM
- GI50 (786-0): 1.37 µM
- GI50 (A498): 8.93 µM
- GI50 (ACHN): 4.82 µM
- GI50 (SNB-19): 1.58 µM
- GI50 (SF-295): 4.74 µM
- GI50 (NCI-460): 1.72 µM
- GI50 (UO-31): 2.64 µM
- GI50 (MOLT-4): 5.74 µM
- GI50 (HCT15): 1.15 µM
- GI50 (HT29): 1.15 µM
- GI50 (SK-MEL-5): 6.06 µM
- GI50 (CCRF-CEM): 1.68 µM
- GI50 (NCI-H522): 3.38 µM
- GI50 (SK-OV-3): 9.38 µM
- GI50 (UACC-257): 8.67 µM
- GI50 (LOX IMVI): 1.07 µM
- GI50 (HOP-92): 9.11 µM
- GI50 (OVCAR-4): 9.14 µM
- GI50 (HCC-2998): 5.43 µM
- GI50 (T-47D): 3.33 µM
- GI50 (SK-MEL-2 [1]): 7.47 µM
- GI50 (HL-60(TB)): 1.66 µM
- GI50 (SK-MEL-2 [2]): 6.26 µM
- GI50 (SNB-75): 1.11 µM
- GI50 (K-562): 1.3 µM
- GI50 (OVCAR-3): 1.7 µM
- GI50 (SN12C): 2.93 µM
- GI50 (MDA-MB-435): 4.07 µM
- GI50 (TK-10): 7.89 µM
- GI50 (SF-539): 0.84 µM
- GI50 (BT-549): 2.73 µM
- GI50 (HCT-116): 1.89 µM
- GI50 (U251): 1.2 µM
- GI50 (IGROV1): 2.66 µM
- GI50 (OVCAR-8): 5.08 µM
- GI50 (SF-268): 5.1 µM
- GI50 (COLO 205): 4.54 µM
